Assay results taken from patent US5374722A, “Bridged benzazepines” (Schering Corporation, priority 1993, dated 1994).
Structures can show the parent of a compound that is named as a salt. Where two headings read alike, the source gives them in different places.

Key:
[1] = target: T1, D-1 receptor (Rattus norvegicus, UniProt P18901); assay: Competitive inhibition assay: displacement of tritiated Compound B* (D-1) from rat striatal tissue; assay type: binding, rat (male Sprague-Dawley)
T1 construct: Stdatal tissue is excised, pooled, and homogenized; from tissue; host or cells: striatum of male Sprague-Dawley rats (washed homogenate pellet)

[2] = target: T2, D-2 receptor (Rattus norvegicus, UniProt P61169); assay: Competitive inhibition assay: displacement of 3H-spiperone (D-2) from rat striatal tissue; assay type: binding, rat (male Sprague-Dawley)
T2 construct: Stdatal tissue is excised, pooled, and homogenized; from tissue; host or cells: striatum of male Sprague-Dawley rats (washed homogenate pellet)

[3] = system: conditioned avoidance response (CAR) in rats; assay: animal or person; assay type: in vivo; conditions: Rattus norvegicus
[4] = 3H-spiperone 0.2 nM, rat striatal tissue, pH 7.4, 37° C., 15 min
[5] = po, 1 h, read-out: Rat CAR MED Oral (minimal effective dose)
[6] = tritiated compound B 0.3 nM, rat striatal tissue, pH 7.4, 37° C., 15 min
[7] = sc, 0.5 h, read-out: Rat CAR MED sc (minimal effective dose)

T2 sequence (P61169 whole entry): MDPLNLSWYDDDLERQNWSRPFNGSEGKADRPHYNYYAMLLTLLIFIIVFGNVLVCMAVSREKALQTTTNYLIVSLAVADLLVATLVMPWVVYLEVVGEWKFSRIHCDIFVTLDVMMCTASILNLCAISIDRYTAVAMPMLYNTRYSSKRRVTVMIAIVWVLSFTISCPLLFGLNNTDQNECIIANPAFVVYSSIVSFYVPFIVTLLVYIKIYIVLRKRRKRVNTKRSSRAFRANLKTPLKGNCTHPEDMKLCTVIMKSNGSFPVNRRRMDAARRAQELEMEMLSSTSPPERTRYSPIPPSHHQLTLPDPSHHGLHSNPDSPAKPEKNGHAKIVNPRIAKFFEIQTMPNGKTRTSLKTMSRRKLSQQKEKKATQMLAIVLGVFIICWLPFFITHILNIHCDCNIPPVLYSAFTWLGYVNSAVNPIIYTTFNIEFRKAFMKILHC
T1 sequence (P18901 whole entry): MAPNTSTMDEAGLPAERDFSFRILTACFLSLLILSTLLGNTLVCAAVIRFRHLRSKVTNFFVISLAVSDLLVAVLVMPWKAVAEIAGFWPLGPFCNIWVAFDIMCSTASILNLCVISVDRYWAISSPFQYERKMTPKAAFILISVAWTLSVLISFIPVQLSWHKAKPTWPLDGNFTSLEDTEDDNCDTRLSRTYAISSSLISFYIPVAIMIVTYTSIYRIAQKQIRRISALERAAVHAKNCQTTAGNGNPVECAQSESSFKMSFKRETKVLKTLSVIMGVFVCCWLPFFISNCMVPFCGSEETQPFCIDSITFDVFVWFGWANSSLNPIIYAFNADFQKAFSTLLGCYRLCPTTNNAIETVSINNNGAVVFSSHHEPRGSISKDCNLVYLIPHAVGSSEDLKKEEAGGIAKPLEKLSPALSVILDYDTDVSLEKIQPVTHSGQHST

Cc1cc2c3c(c1O)CCCC3CN(C)CC2 (stereo not shown) [CH3 H 1 H H H H H, 2,6-Dimethyl-1,2,3,4,8,9,1 0,10a-Octahydro-Naphth[1,8. cd]azepine-7-ol, hydrochloride]
Ki [1]: 37 nM
Ki [2, 4]: 1300 nM
minimal effective dose [3, 5]: ≤ 30 mg/kg

CN1CCc2ccc(O)c3c2C(CCC3)C1 (stereo not shown) [CH H 1 H H H H H, 2-Methyl-1,2,3,4,8,9, 10,10a-OctahydroNaphth[1,8-cd]azepine-7-ol]
Ki [1, 6]: 350 nM
Ki [2, 4]: 3350 nM

CN1CCc2c(Cl)c(Cl)c(O)c3c2C(CCC3)C1 (stereo not shown) [Cl Cl 1 H H H H H, 5,6-Dichloro-2-Methyl-1,2,3,4,8,9, 10,10a-octahydronapth[1,8-cd]azepin-7-ol]
Ki [1]: 1.1 nM
Ki [2, 4]: 230 nM
minimal effective dose [3, 5]: 10 mg/kg

CN1CCc2cc(Cl)c(O)c3c2C(C1)CC3(C)C (stereo not shown) [Cl H 0 H CH3 CH3 H H]
Ki [1]: 65 nM
Ki [2, 4]: 147 nM
minimal effective dose [3, 7]: 3 mg/kg

COc1cc(NC(=O)Oc2c(Cl)cc3c4c2CCCC4CN(C)CC3)cc(OC)c1 (stereo not shown) [Cl H 1 3,5-(MeO)2PhNHCO H H H H]
Ki [1]: 6.6 nM
Ki [2]: 405 nM
minimal effective dose [3, 5]: 10 mg/kg

CC(C)c1ccc(NC(=O)Oc2c(Cl)cc3c4c2CCCC4CN(C)CC3)cc1 (stereo not shown) [Cl H 1 4-i-PrPhNHCO H H H H, 6-Chloro-7-[(4-Isoporpylphenylamino) Carbonyloxy]-2-Methyl-1,2,3,4,8,9,10,10a-Octahydro-Naphth]1,8-cd]azepine, hydrochloride]
Ki [1]: 51 nM
Ki [2]: 680 nM
minimal effective dose [3, 5]: ≤ 30 mg/kg

CN1CCc2cc(Cl)c(O)c3c2C(CCC3c2ccccc2)C1 (stereo not shown) [Cl H 1 H C6H5 H H H]
Ki [1, 6]: 2080 nM
Ki [2, 4]: 42800 nM
minimal effective dose [3, 5]: > 30 mg/kg
minimal effective dose [3, 7]: > 10 mg/kg

CN1CCc2cc(Cl)c(O)c3c2C(CCC3(C)C)C1 (stereo not shown) [Cl H 1 H CH3 CH3 H H, 6-Chloro-2,8.8-Trimethyl-1,2,3,4,8,9,10,10a-Octahydro-Naphth [1,8-cd]azepin-7-ol]
Ki [1, 6]: 256 nM
Ki [2, 4]: 218 nM
minimal effective dose [3, 5]: < 30 mg/kg
minimal effective dose [3, 7]: > 10 mg/kg

CC1CCC2CN(C)CCc3cc(Cl)c(O)c1c32 (stereo not shown) [Cl H 1 H CH3 H H H, 6-chloro-2,8-dimethyl-1.2.3.4.8.9.10.10a-octahydro-naphth [1.8-c.d]azepin-7-ol]
Ki [1]: 42 nM
Ki [2, 4]: 248 nM
minimal effective dose [3, 5]: 3 mg/kg
minimal effective dose [3, 7]: 0.1 mg/kg

CC1=Cc2c(O)c(Cl)cc3c2C(C1)CN(C)CC3 (stereo not shown) [Cl H 1 H H -- CH3 --]
Ki [1]: 32 nM
Ki [2, 4]: 264 nM
minimal effective dose [3, 5]: > 30 mg/kg

CC1CCC2CN(C)CCc3cc(Cl)c(O)c1c32 (stereo not shown) [Cl H 1 H H CH3 H H, 6-chloro-2,8-dimethyl-1.2.3.4.8.9.10.10a-octahydro-naphth [1.8-c.d]azepin-7-ol]
Ki [1]: 51 nM
Ki [2, 4]: 389 nM

CC1Cc2c(O)c(Cl)cc3c2C(C1)CN(C)CC3 (stereo not shown) [Cl H 1 H H H CH3 H]
Ki [1]: 4.5 nM
Ki [2, 4]: 250 nM

CN1CCc2cc(Cl)c(O)c3c2C(CCC3)C1 (stereo not shown) [Cl H 1 H H H H H, 6-Chloro-2-Methyl-1,2,3,4,8,9, 10, 10a-octahydro-naphth [1,8-cd]azepin-7-ol]
Ki [1]: 6.2 nM
Ki [2, 4]: 500 nM
minimal effective dose [3, 5]: > 30 mg/kg
minimal effective dose [3, 7]: 0.3 mg/kg

CN1CCc2cc(Cl)c(O)c3c2C(CCC3O)C1 (stereo not shown) [Cl H 1 H HO H H H]
Ki [1, 6]: 110 nM
Ki [2, 4]: 6590 nM

CN1CCc2cc(Cl)c(OC(=O)N(C)C)c3c2C(CCC3)C1 (stereo not shown) [Cl H 1 Me2NCO H H H H]
Ki [1]: 1010 nM
Ki [2]: 8010 nM
minimal effective dose [3, 5]: 10 mg/kg
minimal effective dose [3, 7]: 3 mg/kg

COc1cc(NC(=O)Oc2ccc3c4c2C(C)CCC4CN(C)CC3)cc(OC)c1 (stereo not shown) [H H 1 3,5-(MeO)2PhNHCO CH3 H H H]
Ki [1]: 35 nM
Ki [2]: 337 nM
minimal effective dose [3, 5]: > 30 mg/kg

CC(C)c1ccc(NC(=O)Oc2ccc3c4c2C(C)CCC4CN(C)CC3)cc1 (stereo not shown) [H H 1 4-iPrPhNHCO CH3 H H H]
Ki [1]: 134 nM
Ki [2]: 420 nM
minimal effective dose [3, 5]: > 30 mg/kg
